Measured values as given in US20050124625A1, “Piperazine derivatives and their use as modulators of nuclear hormone receptor function” (priority 2003, published 2005).

Assays:
[1] = test system: immature castrated rats, ventral prostate (VP) and seminal vesicles (SV); assay: Wet prostate weight assay, AR antagonist assay; type: in vivo, rat; conditions: for EC50 (organ weight increase): immature castrated rats
Description: Biol. Med., 83, 175 (1953); P. C.
The basis of this assay is the fact that male sexual accessory organs, such as the prostate and seminal vesicles, play an important role in reproductive function. These glands are stimulated to grow and are maintained in size and secretory function by the continued presence of serum testosterone (T), which is the major serum androgen (>95%) produced by the Leydig cells in the testis under the control of the pituitary luteinizing hormone (LH) and follicle stimulating hormone (FSH). […] Adrenal androgens also contribute about 20% of total DHT in the rat prostate, compared to 40% of that in 65-year-old men. F. Labrie et al. Clin. Invest. Med., 16, 475-492 (1993). However, this is not a major pathway, since in both animals and humans, castration leads to almost complete involution of the prostate and seminal vesicles without concomitant adrenalectomy. […] […] […] Since the male sex organs are the tissues most responsive to modulation of the androgen activity, this model is used to determine the androgen dependent growth of the sex accessory organs in immature castrated rats.
Five days after surgery these castrated rats (60-70 g, 23-25 day-old) are dosed for 3 days. […] Animals are dosed (v/w) at 0.5 ml of vehicle/100 g body weight. […] Control vehicle • 2.
At the end of the 3-day treatment, the animals are sacrificed, and the ventral prostate weighed. To compare data from different experiments, the sexual organs weights are first standardized as mg per 100 g of body weight, and the increase in organ weight induced by TP was considered as the maximum increase (100%). ANOVA followed by one-tailed Student or Fischer's exact test is used for statistical analysis.
The gain and loss of sexual organ weight reflect the changes of the cell number (DNA content) and cell mass (protein content), depending upon the serum androgen concentration. See Y. Okuda et al., J. Urol., 145, 188-191 (1991), the disclosure of which is herein incorporated by reference. Therefore, measurement of organ wet weight is sufficient to indicate the bioactivity of androgens and androgen antagonist.

[2] = test system: castrated rats, levator ani, seminal vesicles (SV) and prostate; assay: Levator ani & wet prostate weight assay, AR agonist assay; type: in vivo, rat; conditions: for EC50 (organ weight increase): castrated rats
Description: The activity of compounds of the present invention as AR agonists is investigated in an immature male rat model, a recognized test of anabolic effects in muscle and sustaining effects in sex organs for a given compound, as described in L. G. Hershberger et al., Proc. Soc. Expt. Biol. Med., 83, 175 (1953); B. L. Beyler et al, “Methods for evaluating anabolic and catabolic agents in laboratory animals”, J. Amer. Med. Women's Ass., 23, 708 (1968); H. Fukuda et al., “Investigations of the levator ani muscle as an anabolic steroid assay”, Nago Dai. Yak. Ken. Nem. 14, 84 (1966) the disclosures of which are herein incorporated by reference.
The basis of this assay lies in the well-defined action of androgenic agents on the maintenance and growth of muscle tissues and sexual accessory organs in animals and man. Androgenic steroids, such as testosterone (T), have been well characterized for their ability to maintain muscle mass. Treatment of animals or humans after castrations with an exogenous source of T results in a reversal of muscular atrophy. The effects of T on muscular atrophy in the rat levator ani muscle have been well characterized. M. Masuoka et al., “Constant cell population in normal, testosterone deprived and testosterone stimulated levator ani muscles” Am. J. Anat. 119, 263 (1966); Z. Gori et al., “Testosterone hypertrophy of levator ani muscle of castrated rats. I. Quantitative data” Boll.-Soc. Ital. Biol. Sper. 42, 1596 (1966); Z. Gori et al., “Testosterone hypertrophy of levator ani muscle of castrated rats. II. Electron-microscopic observations” Boll.-Soc. Ital. Biol. Sper. 42, 1600 (1966); A. Boris et al., Steroids 15, 61 (1970). As described above, the effects of androgens on maintenance of male sexual accessory organs, such as the prostate and seminal vesicles, is well described. Castration results in rapid involution and atrophy of the prostate and seminal vesicles. This effect can be reversed by exogenous addition of androgens. […]

[3] = molecular target: endogenous glucocorticoid receptor (Homo sapiens, UniProt P04150); conditions: concentration of ≦10 μM; 10 ng/ml PMA; A549 cells
Description: Cells are plated the day before the assay at approximately 40000 cells/well. […] Activity is measured by analysis in a luminometer as compared to control experiments treated with buffer or dexamethasome.

endogenous glucocorticoid receptor, sequence (P04150 whole entry): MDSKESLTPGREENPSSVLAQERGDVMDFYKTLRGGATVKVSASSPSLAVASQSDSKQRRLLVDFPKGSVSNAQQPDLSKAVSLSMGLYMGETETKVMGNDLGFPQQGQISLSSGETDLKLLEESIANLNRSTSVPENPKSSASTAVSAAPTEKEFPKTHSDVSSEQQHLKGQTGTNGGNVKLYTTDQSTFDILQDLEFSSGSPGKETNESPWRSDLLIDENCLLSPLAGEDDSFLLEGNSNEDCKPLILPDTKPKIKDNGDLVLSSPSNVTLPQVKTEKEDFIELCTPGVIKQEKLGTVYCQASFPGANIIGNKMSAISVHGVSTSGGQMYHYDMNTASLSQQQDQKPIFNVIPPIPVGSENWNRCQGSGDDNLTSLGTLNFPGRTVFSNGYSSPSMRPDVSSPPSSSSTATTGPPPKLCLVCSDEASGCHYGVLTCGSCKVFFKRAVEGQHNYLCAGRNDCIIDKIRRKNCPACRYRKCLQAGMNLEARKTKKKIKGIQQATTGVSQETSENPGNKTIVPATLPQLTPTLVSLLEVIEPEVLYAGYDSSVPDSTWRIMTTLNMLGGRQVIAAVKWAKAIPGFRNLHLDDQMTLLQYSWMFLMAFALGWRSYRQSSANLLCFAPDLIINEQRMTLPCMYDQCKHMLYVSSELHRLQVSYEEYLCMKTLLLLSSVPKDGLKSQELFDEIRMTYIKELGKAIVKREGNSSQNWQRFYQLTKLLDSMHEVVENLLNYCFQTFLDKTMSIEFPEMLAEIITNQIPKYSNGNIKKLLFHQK

SMILES	EC50 (organ weight increase) [1]	EC50 (organ weight increase) [2]	suppression of activity (% inhibition of the reporter system vs buffer control with PMA) [3] [%]	ED80 ([1]; immature castrated rat model) [mg]	potency higher than free T ([1]; rat, in vivo)	potency higher than free T ([2]; rat, in vivo)
C[C@]12CC[C@H]3[C@@H](CCC4=CC(=O)CC[C@@]43C)[C@@H]1CC[C@@H]2O [T, testosterone]	about 1 mg	about 1 mg				
C[C@@H]1C[C@H]2[C@@H]3CCC4=CC(=O)C=C[C@]4(C)[C@@]3(F)[C@@H](O)C[C@]2(C)[C@@]1(O)C(=O)CO [dexamethasone]			65			
CCC(=O)O[C@H]1CC[C@H]2[C@@H]3CCC4=CC(=O)CC[C@]4(C)[C@H]3CC[C@]12C [TP, testosterone propionate]	~0.03 mg	~0.03 mg		0.1	10-30 fold	10-30 fold
